Measured values as given in patent US7897582B2, “Oligonucleotide compositions and methods for the modulation of the expression of B7 protein” (Isis Pharmaceuticals, Inc., priority 2003, dated 2011).
Strand notation (5' to 3'): a small letter for the sugar, then the base; units joined by * are phosphorothioate-linked, units joined directly phosphodiester-linked; [ ] holds rarer units or linkages, { } end groups; capitals alone tell only the bases. e = 2'-O-(2-methoxyethyl) (MOE); [5mC] = 5-methylcytosine; d = 2'-deoxy (DNA)

tested on: human B7.2 mRNA; assay: Human B7.2 mRNA levels in THP-1 cells by quantitative real-time PCR (Example 27); format: cell-based; parameters: concentration or dose not given beside the values
From the text: In accordance with the present invention, an additional series of antisense compounds were designed to target different regions of the human B7.2 RNA, using published sequences (GenBank accession number U04343.1, incorporated herein as SEQ ID NO: 295, GenBank accession number BC040261.1, incorporated herein as SEQ ID NO: 296 and GenBank accession number NT—005543.12, a portion of which is incorporated herein as SEQ ID NO: 297). “Target site” indicates the first (5′-most) nucleotide number on the particular target sequence to which the compound binds. All compounds in Table 25 are chimeric oligonucleotides (“gapmers”) 20 nucleotides in length, composed of a central “gap” region consisting of ten 2′-deoxynucleotides, which is flanked on both sides (5′ and 3′ directions) by five-nucleotide “wings”. The wings are composed of 2′-methoxyethyl (2′-MOE)nucleotides. The internucleoside (backbone) linkages are phosphorothioate (P═S) throughout the oligonucleotide. All cytidine residues are 5-methylcytidines. The compounds were analyzed for their effect on human B7.2 mRNA levels in THP-1 cells by quantitative real-time PCR as described in other examples herein. Data are averages from three experiments. If present, “N.D.” indicates “no data”.

First: 323638 (antisense eG*eT*eA*eT*eA*d[5mC]*d[5mC]*dT*d[5mC]*dA*dT*dT*d[5mC]*dA*dG*eA*eA*e[5mC]*e[5mC]*eA) [compound 323638]
Second: 323644 (antisense e[5mC]*e[5mC]*e[5mC]*eT*eT*dG*dT*d[5mC]*d[5mC]*dT*dT*dG*dA*dT*d[5mC]*eT*eG*eA*eA*eG) [compound 323644]
The “% INHIB (inhibition of human B7.2 mRNA levels)” value (“% INHIB” below) of the first is lower: 20% for the first, 71% for the second.

Going from “323647 (antisense eA*eT*eA*e[5mC]*eA*dT*dT*dG*dA*dT*dA*d[5mC]*dA*dA*dG*e[5mC]*e[5mC]*e[5mC]*eT*eT) [compound 323647]” to “323668 (antisense eA*e[5mC]*eA*eT*eT*dA*dT*d[5mC]*dT*dT*dG*dA*dG*dA*dT*eT*eT*e[5mC]*eT*eG) [compound 323668]”, the “% INHIB” value falls from 41% to 39%.

First: 323694 (antisense eA*eA*eT*eG*eA*dA*dT*dA*d[5mC]*dT*dT*dG*dT*dA*dT*eG*eG*eG*e[5mC]*eT) [compound 323694]
Second: 323652 (antisense eA*eG*e[5mC]*eA*e[5mC]*dT*dG*dA*d[5mC]*dA*dG*dT*dT*d[5mC]*dA*eG*eA*eA*eT*eT) [compound 323652]
The “% INHIB” value of the first is lower: 71% for the first, 87% for the second.

Compared with “323650 (antisense eG*eT*eT*e[5mC]*eA*dG*dA*dA*dT*dT*d[5mC]*dA*dT*d[5mC]*dT*eG*eG*eT*eG*eG) [compound 323650]”, “323635 (antisense e[5mC]*eT*eG*e[5mC]*e[5mC]*dA*dA*dA*dA*dT*dA*d[5mC]*dT*dA*d[5mC]*eT*eA*eG*e[5mC]*eT) [compound 323635]” is lower in “% INHIB” value: 92% for the first, 24% for the second.

Compared with “323671 (antisense eG*eA*eA*eA*e[5mC]*dA*dG*dA*d[5mC]*dA*dA*dG*d[5mC]*dT*dG*eA*eT*eG*eG*eA) [compound 323671]”, “323683 (antisense eT*e[5mC]*eT*eT*e[5mC]*dT*dT*d[5mC]*d[5mC]*dA*dT*dT*dT*d[5mC]*d[5mC]*eA*eT*eA*eG*eA) [compound 323683]” is lower in “% INHIB” value: 26% for the first, 16% for the second.

Compared with “323653 (antisense eT*eA*eG*e[5mC]*eA*dA*dG*d[5mC]*dA*d[5mC]*dT*dG*dA*d[5mC]*dA*eG*eT*eT*e[5mC]*eA) [compound 323653]”, “323645 (antisense eA*e[5mC]*eA*eA*eG*d[5mC]*d[5mC]*d[5mC]*dT*dT*dG*dT*d[5mC]*d[5mC]*dT*eT*eG*eA*eT*e[5mC]) [compound 323645]” is lower in “% INHIB” value: 96% for the first, 56% for the second.

Going from “323636 (antisense eT*eT*e[5mC]*eA*eG*dA*dA*d[5mC]*d[5mC]*dA*dA*dG*dT*dT*dT*eT*e[5mC]*e[5mC]*eT*eG) [compound 323636]” to “323685 (antisense eT*eT*eG*eG*eT*dT*d[5mC]*d[5mC]*dA*d[5mC]*dA*dT*dT*dT*dA*eT*eA*eA*eG*eA) [compound 323685]”, the “% INHIB” value falls from 23% to 18%.

Going from “323646 (antisense eT*eT*eG*eA*eT*dA*d[5mC]*dA*dA*dG*d[5mC]*d[5mC]*d[5mC]*dT*dT*eG*eT*e[5mC]*e[5mC]*eT) [compound 323646]” to “323656 (antisense e[5mC]*eT*eA*eT*eT*dT*d[5mC]*dA*dG*dG*dT*dT*dG*dA*d[5mC]*eT*eG*eA*eA*eG) [compound 323656]”, the “% INHIB” value rises from 33% to 76%.

Compared with “323660 (antisense eG*eG*eG*eT*eA*dA*d[5mC]*d[5mC]*dG*dT*dG*dT*dA*dT*dA*eG*eA*eT*eG*eA) [compound 323660]”, “323655 (antisense eT*eT*eG*eA*e[5mC]*dT*dG*dA*dA*dG*dT*dT*dA*dG*d[5mC]*eA*eA*eG*e[5mC]*eA) [compound 323655]” is lower in “% INHIB” value: 71% for the first, 65% for the second.

Going from “323679 (antisense eT*eT*eG*eG*eA*dA*dG*dT*dA*d[5mC]*dA*dG*d[5mC]*dT*dG*eT*eA*eA*eT*e[5mC]) [compound 323679]” to “323682 (antisense eT*e[5mC]*e[5mC]*eA*eT*dT*dT*d[5mC]*d[5mC]*dA*dT*dA*dG*dA*dA*eT*eT*eA*eG*eA) [compound 323682]”, the “% INHIB” value falls from 60% to 35%.

Compared with “323680 (antisense eA*eT*eA*eA*eT*dA*dA*d[5mC]*dT*dG*dT*dT*dG*dG*dA*eA*eG*eT*eA*e[5mC]) [compound 323680]”, “323670 (antisense eA*eG*eA*e[5mC]*eA*dA*dG*d[5mC]*dT*dG*dA*dT*dG*dG*dA*eA*eA*e[5mC]*eG*eT) [compound 323670]” is lower in “% INHIB” value: 51% for the first, 19% for the second.

First: 323642 (antisense e[5mC]*eT*eT*eG*eT*dG*d[5mC]*dG*dG*d[5mC]*d[5mC]*d[5mC]*dA*dT*dA*eT*eA*e[5mC]*eT*eT) [compound 323642]
Second: 323666 (antisense eA*e[5mC]*e[5mC]*eA*eT*d[5mC]*dA*dT*dA*d[5mC]*dT*d[5mC]*dG*dA*dT*eA*eG*eT*eT*eG) [compound 323666]
The “% INHIB” value of the first is lower: 27% for the first, 71% for the second.

Compared with “323693 (antisense eA*eT*eA*e[5mC]*eT*dT*dG*dT*dA*dT*dG*dG*dG*d[5mC]*dT*eT*eT*eA*e[5mC]*eT) [compound 323693]”, “323632 (antisense eA*eG*eG*eT*e[5mC]*dT*dG*d[5mC]*dA*dG*dT*d[5mC]*dT*d[5mC]*dA*eT*eT*eG*eA*eA) [compound 323632]” is lower in “% INHIB” value: 62% for the first, 41% for the second.

First: 323687 (antisense e[5mC]*eT*eT*e[5mC]*e[5mC]*d[5mC]*dT*d[5mC]*dT*d[5mC]*d[5mC]*dA*dT*dT*dG*eT*eG*eT*eT*eG) [compound 323687]
Second: 323649 (antisense eG*eA*eA*eT*eT*d[5mC]*dA*dT*d[5mC]*dT*dG*dG*dT*dG*dG*eA*eT*eG*e[5mC]*eG) [compound 323649]
The “% INHIB” value of the first is lower: 19% for the first, 81% for the second.

Going from “323663 (antisense eG*eT*eT*e[5mC]*eT*dT*dA*dG*d[5mC]*dA*dA*dA*dA*d[5mC]*dA*e[5mC]*eT*e[5mC]*eA*eT) [compound 323663]” to “323648 (antisense eT*eG*eG*eA*eT*dG*dA*dT*dA*d[5mC]*dA*dT*dT*dG*dA*eT*eA*e[5mC]*eA*eA) [compound 323648]”, the “% INHIB” value rises from 23% to 31%.

First: 323626 (antisense e[5mC]*e[5mC]*eA*eT*e[5mC]*dA*d[5mC]*dA*dA*dA*dG*dA*dG*dA*dA*eT*eG*eT*eT*eA) [compound 323626]
Second: 323640 (antisense e[5mC]*eT*e[5mC]*eT*eT*dT*dG*d[5mC]*d[5mC]*dT*dA*dA*dG*dT*dA*eT*eA*e[5mC]*e[5mC]*eT) [compound 323640]
The “% INHIB” value of the first is higher: 32% for the first, 28% for the second.

First: 323686 (antisense e[5mC]*eT*e[5mC]*eT*e[5mC]*d[5mC]*dA*dT*dT*dG*dT*dG*dT*dT*dG*eG*eT*eT*e[5mC]*e[5mC]) [compound 323686]
Second: 323654 (antisense eT*eG*eA*eA*eG*dT*dT*dA*dG*d[5mC]*dA*dA*dG*d[5mC]*dA*e[5mC]*eT*eG*eA*e[5mC]) [compound 323654]
The “% INHIB” value of the first is lower: 53% for the first, 87% for the second.

First: 323674 (antisense e[5mC]*eG*eT*eA*eA*d[5mC]*dA*dT*d[5mC]*dA*dG*dG*dG*dA*dA*eT*eG*eA*eA*eA) [compound 323674]
Second: 323669 (antisense e[5mC]*eG*eT*eA*e[5mC]*dA*dG*dT*dT*d[5mC]*dT*dG*dT*dG*dA*e[5mC]*eA*eT*eT*eA) [compound 323669]
The “% INHIB” value of the first is lower: 47% for the first, 68% for the second.

Going from “323688 (antisense eT*eG*eG*eT*e[5mC]*dT*dG*dT*dT*d[5mC]*dA*d[5mC]*dT*d[5mC]*dT*e[5mC]*eT*eT*e[5mC]*e[5mC]) [compound 323688]” to “323629 (antisense e[5mC]*e[5mC]*eA*eG*eA*dG*dA*dG*d[5mC]*dA*dG*dG*dA*dA*dG*eG*e[5mC]*e[5mC]*eA*eT) [compound 323629]”, the “% INHIB” value falls from 58% to 36%.

First: 323677 (antisense eG*eG*eA*eG*eG*d[5mC]*dT*dG*dA*dG*dG*dG*dT*d[5mC]*d[5mC]*eT*e[5mC]*eA*eA*eG) [compound 323677]
Second: 323661 (antisense eA*eG*eG*eT*eT*d[5mC]*dT*dG*dG*dG*dT*dA*dA*d[5mC]*d[5mC]*eG*eT*eG*eT*eA) [compound 323661]
The “% INHIB” value of the first is lower: 55% for the first, 68% for the second.

First: 323678 (antisense eA*eG*eT*eA*e[5mC]*dA*dG*d[5mC]*dT*dG*dT*dA*dA*dT*d[5mC]*e[5mC]*eA*eA*eG*eG) [compound 323678]
Second: 323634 (antisense eA*eA*eA*eT*eA*d[5mC]*dT*dA*d[5mC]*dT*dA*dG*d[5mC]*dT*d[5mC]*eA*e[5mC]*eT*e[5mC]*eA) [compound 323634]
The “% INHIB” value of the first is lower: 23% for the first, 30% for the second.

First: 323651 (antisense eT*eG*eA*e[5mC]*eA*dG*dT*dT*d[5mC]*dA*dG*dA*dA*dT*dT*e[5mC]*eA*eT*e[5mC]*eT) [compound 323651]
Second: 323672 (antisense eG*eG*eA*eA*eT*dG*dA*dA*dA*d[5mC]*dA*dG*dA*d[5mC]*dA*eA*eG*e[5mC]*eT*eG) [compound 323672]
The “% INHIB” value of the first is higher: 64% for the first, 33% for the second.
